According to patent publication US20200129450A1, “COMPOSITION COMPRISING OSMUNDACETONE OR PHARMACEUTICALLY ACCEPTABLE SALT THEREOF FOR PREVENTING OR TREATING BONE DISEASE” (KORPHARM CO., LTD., priority 2016, published 2020):

Tests used:
[1] = tested on: mature osteoclasts; assay: Bone resorption assay (OsteoLyse Assay Kit) with mature osteoclasts; type: cell-based, mouse; conditions: 8 μM (IC50 concentration), mature osteoclasts treated for 3 days, normalized by cellular DNA
Procedure: The quantitative measurement of in vitro osteoclast-mediated degradation of human bone collagen was carried out using the OsteoLyse™ Assay Kit (Lonza Walkersville, Inc. Walkersville, Md., USA) according to manufacturer's instructions.
This assay allows a direct measurement of the release of […] into the osteoclast resorption lacuna (Delaisse et al., 2003).
Briefly, 2×10^4 mouse bone marrow cells prepared above were dispensed in 96-well OsteoLyse™ cell culture plate coated with europium-conjugated collagen.
The cells were incubated in 0.1 mL of complete α-MEM per well in the presence of M-CSF (60 ng/mL) and RANKL (150 ng/mL) in the conditions of 37° C. and 5% CO2 for 6 days. Thereafter, the medium was exchanged on day 3 of the dispensing.
In order to measure the ability to inhibit the mature osteoclastic functions, the medium was exchanged on day 6, and osmundacetone was added at an IC50 concentration obtained from TRAP analysis.
After the mature osteoclasts were treated with osmundacetone for 3 days, 10 μL of a supernatant of the cell culture was taken, and placed in a second 96-well analysis plate containing fluorophore-Releasing reagent. The degraded collagen was measured using a time-resolved fluorescence fluorimeter, Wallac Victor (Perkin Elmer, Waltham, Mass., USA). […]

[2] = tested on: ALP activity of MC3T3-E1 osteoblasts in co-incubation; assay: Co-culture of osteoclasts and osteoblasts: ALP activity; type: cell-based, mouse; conditions: 10 μM, vs non-treated
Procedure: (§1) 1×10^5 C57BL/6 mouse bone marrow mononuclear cells per well of a 48-well plate were prepared in the same manner as described above, and co-incubated together with 1.5×10^4 MC3T3-E1 murine osteoblasts, using 500 μL of α-MEM containing 10% FBS and 1% antibiotic (100 U/mL penicillin G and […] streptomycin) in the conditions of 37° C. and 5% CO2 while the medium was exchanged every three days.
(§2) Positive control cells were co-incubated together with osteoclast differentiation factors M-CSF (60 ng/mL) and RANKL (150 ng/mL), and osteoblast differentiation factors ascorbic acid (50 μg/mL) and 10 mM R-glycerophosphate.
(§3) Negative control cells were incubated by adding only M-CSF as a differentiation factor. In order to examine effects of osmundacetone on the differentiation of osteoclasts and osteoblasts, osmundacetone were administered at a final concentration of 10 μM into the positive control cells on day 1 after the cells were dispensed on the plate.
ALP activity was assessed using Quantichrom ALP Assay Kit (Bioassay Systems, Hayward, Calif., USA) according to manufacturer's instructions.
[…] The % activation of ALP activity was shown by comparing ALP activity of cells treated with an experimental compound and ALP activity of the non-treated control cells.
In order to investigate whether or not osmundacetone has ability to inhibit osteoclast differentiation and activate osteoblast differentiation simultaneously, bone marrow mononuclear cells collected from C57BL/6 mice and MC3T3-E1 cells as osteoblast precursor cells were co-incubated in a 48-well plate at cell concentrations of 1×10^5 bone marrow cells and […] MC3T3-E1 cells per well. The bone marrow monocyte/macrophage lineage cells in the co-incubated bone marrow cells and osteoblast precursor cells differentiated into mature multinuclear osteoclasts in the presence of M-CSF and RANKL within 6-7 days.

[3] = tested on: ADMSC human Adipose-derived mesenchymal stem cells; assay: MTT assay cytotoxicity; type: cell-based; conditions: 24 hours, read-out: IC50 according to MTT assay
Procedure: Human adipose-derived mesenchymal stem cells, ADMSCs (CEFO Bio, Seoul, Korea), were incubated using CB-ADMSC-GM (CEFO Bio, Seoul, Korea) in the conditions of 37° C. and 5% CO2.
(§4) The compound isolated from Osmunda japonica, prepared in section 1 of <Example 1>, was investigated for cytotoxicity using MTT assay.
(§5) MTT assay was as follows.
(§6) Cells were incubated at 1×10^3 cells/well in a 96-well plate containing DMEM with 10% fetal bovine serum (FBS) at 5% CO2 and 37° C., and then osmundacetone was added to the cell medium, followed by incubation for 24 hours. Thereafter, 100 μL of MTT (0.5 mg/ml PBS) was administered, followed by incubation for 2 hours. Thereafter, the medium was removed from each well, and 100 μL of DMSO was added. After incubation for 10 minutes, the absorbance was measured using a microplate reader (SPCTRA MAX 340PC, Molecular Devices, USA) at 570 nm. The absorbance is an indicator showing the number of living cells, and calculated by the following equation. The reproducibility thereof was validated by three experiments.
(§7) Cell proliferation (%)=OD550(sample)/OD550(control)

[4] = tested on: PC3 human prostate adenocarcinoma; assay: MTT assay cytotoxicity; type: cell-based; conditions: PC3, 24 hours
Procedure: (§8) HaCaT human epidermal keratinocytes, # ATCC PCS-200-011) were incubated using Dulbecco's modified Eagle's medium (DMEM, # DMEM-HPA, Capricorn Scientific, Ebsdorfergrund, Germany) in the conditions of 37° C. and 5% CO2. NIH3T3 mouse embryo fibroblasts (# KCLB 21658), RAW264.7 murine macrophages (preosteoclast cell line, # KCLB 40071), HCT116 human colon cancer cells (# KCLB 10247), PC3 human prostate adenocarcinoma cells (# KCLB 21435), HT1080 human fibrosarcoma cells (# KCLB 1121), and B16F10 mouse malignant melanoma cells (# KCLB 80008) were purchased from the Korean Cell Line Bank, and incubated using DMEM in the conditions of 37° C. and 5% C02.
as §4, §5, §6, §7

[5] = tested on: HaCaT human epidermal keratinocytes; assay: MTT assay cytotoxicity; type: cell-based; conditions: 24 hours, read-out: IC50 according to MTT assay
Procedure: as §8, §4, §5, §6, §7

[6] = tested on: RAW264.7 mouse macrophage cell line; assay: MTT assay cytotoxicity; type: cell-based; conditions: RAW264.7, 24 hours
Procedure: as §8, §4, §5, §6, §7

[7] = tested on: normal cell lines; assay: MTT assay cytotoxicity, normal cell lines (summary); type: cell-based
Procedure: as §4, §5, §6, §7

[8] = US toxic substance regulatory agencies, Not Listed; cited from earlier work
[9] = tested on: osteoclasts co-incubated with MC3T3-E1 cells; assay: Co-culture of osteoclasts and osteoblasts: osteoclast proliferation and differentiation; type: cell-based, mouse; conditions: 10 μM
Procedure: as §1, §2, §3
In order to investigate whether or not osmundacetone has ability to inhibit osteoclast differentiation and activate osteoblast differentiation simultaneously, bone marrow mononuclear cells collected from C57BL/6 mice and MC3T3-E1 cells as osteoblast precursor cells were co-incubated in a 48-well plate at cell concentrations of 1×10^5 bone marrow cells and 3×10^3 MC3T3-E1 cells per well. […]

CC(=O)/C=C/c1ccc(O)c(O)c1 [Osmundacetone, (3E)-4-(3,4-dihydroxyphenyl)-3-buten-2-one]
bone resorption function of mature osteoclasts, % that of non-treated osteoclasts [1]: 58.7±13% | % activation of ALP activity in co-incubation ([2]; day 7 of co-incubation): 104% | % activation of ALP activity in co-incubation ([2]; day 14 of co-incubation): 111% | % activation of ALP activity in co-incubation ([2]; day 21 of co-incubation): 95% | IC50 [3]: 2.76 mM | LD50 (MTT assay) [4]: 65.5 ± 8.7 µM | IC50 [5]: 3.51 ± 0.11 mM | LD50 (MTT assay) [6]: 507 ± 98 µM | cell cytotoxicity on normal cell lines ([7]; judged against IC50 of less than 100 μM as active): did not show cell cytotoxicity | LD50 for normal cell lines ([7]; summary range): 2,500-5,000 μM | tests of human toxicity, irritation, carcinogenicity, environmental toxicity [8]: harmless and safe | proliferation and differentiation of osteoclasts in co-incubation [9]: completely inhibited | mature osteoclasts in co-incubation ([9]; day 6 after administration): completely disappeared
